# Experimental data from ChEMBL document CHEMBL1268971, “4,5-Dihydro-1H-pyrazolo[4,3-h]quinazolines as potent and selective Polo-like kinase 1 (PLK1) inhibitors” (Bioorg Med Chem Lett, 2010).
# The source made the active and inactive calls. The rule behind the calls is not given here.
# Tests used:
# [1] = Solubility of the compound at pH 7; assay type: physicochemical; conditions: buffer
# [2] = Terminal half life in CD1 mouse at 10 mg/kg, po administered as single dose by LC/MS/MS analysis; assay type: ADME, organism-based; parameters: dose 10 mg/kg, route oral; conditions: in vivo, read-out: beta t1/2 (converted)
# MIA PaCa-2 = assay: Antiproliferative activity against human MIAPaCa2 cells after 72 hrs by CellTiter-Glo assay; assay type: functional, cell-based; conditions: MIA PaCa-2, 72 h
# [3] = target: Serine/threonine-protein kinase Nek6 (Homo sapiens, UniProt Q9HC98); assay: Inhibition of NEK6
# Serine/threonine-protein kinase Nek6, sequence (Q9HC98 whole entry): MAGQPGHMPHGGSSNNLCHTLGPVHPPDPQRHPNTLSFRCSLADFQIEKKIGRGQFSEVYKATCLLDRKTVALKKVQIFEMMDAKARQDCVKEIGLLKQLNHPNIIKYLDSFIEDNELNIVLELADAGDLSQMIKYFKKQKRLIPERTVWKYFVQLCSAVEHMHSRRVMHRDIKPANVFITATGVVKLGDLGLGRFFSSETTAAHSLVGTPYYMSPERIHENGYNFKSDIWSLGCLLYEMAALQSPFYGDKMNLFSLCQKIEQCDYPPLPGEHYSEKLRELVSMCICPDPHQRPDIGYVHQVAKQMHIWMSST
# [4] = Antiproliferative activity against human A2780/ADR cells after 72 hrs by CellTiter-Glo assay; assay type: functional, cell-based
# A2780 [5] = assay: cells; conditions: Homo sapiens, A2780, 72 h
# [6] = Antiproliferative activity against human A2780/E6 cells after 72 hrs by CellTiter-Glo assay; assay type: functional, cell-based; conditions: A2780/E6, 72 h
# [7] = Cmax in CD1 mouse at 10 mg/kg, po administered as single dose by LC/MS/MS analysis; assay type: ADME, organism-based; parameters: dose 10 mg/kg, route oral; conditions: in vivo
# [8] = Clearance in CD1 mouse at 10 mg/kg, iv administered as single dose by LC/MS/MS analysis; assay type: ADME, organism-based; parameters: dose 10 mg/kg, route intravenous; conditions: in vivo
# HT-29 = assay: Antiproliferative activity against human HT-29 cells after 72 hrs by CellTiter-Glo assay; assay type: functional, cell-based; conditions: HT-29, 72 h
# [9] = AUC (0 to infinity) in CD1 mouse at 10 mg/kg, po administered as single dose by LC/MS/MS analysis; assay type: ADME, organism-based; parameters: time infinity, dose 10 mg/kg, route oral; conditions: plasma
# HCT-116 [10] = assay: Induction of apoptosis in human HCT116 cells assessed as induction of PARP cleavage at 0.005 to 0.5 uM after 24 hrs; assay type: functional, cell-based
# HCT-116 [11] = assay: Antitumor against human HCT116 cells xenografted in CD1 mouse assessed as tumor growth inhibition at 60 mg/kg, po daily administered on day 1, 2, 3 post-implantation for 2 cycles; conditions: HCT-116, po, read-out: TGI
# [12] = Solubility of the compound at 105 Tween 80; assay type: physicochemical
# Mus musculus [13] = assay: Toxicity in CD1 mouse xenografted with human HCT116 cells assessed as reversible body weight loss at 60 mg/kg, po daily administered on day 1, 2, 3 post-implantation in weekly schedule of 2 cycles; conditions: in vivo
# Mus musculus [14] = assay: Toxicity in CD1 mouse xenografted with human HCT116 cells assessed as reversible body weight loss at 30 mg/kg, iv BID administered on day 1, 2 post-implantation in weekly schedule of 3 cycles measured on day 32; conditions: in vivo
# A2780 [15] = assay: Induction of apoptosis in human A2780 cells assessed as induction of PARP cleavage at 0.005 to 0.5 uM after 24 hrs
# [16] = Permeability of the compound by PAMPA; assay type: ADME
# U2OS [17] = assay: Induction of cell cycle arrest in human U2OS cells assessed as pSer46 TCTP signal inhibition of after 1 hr by array scan assay; assay type: functional, cell-based
# [18] = AUC (0 to infinity) in CD1 mouse at 10 mg/kg, iv administered as single dose by LC/MS/MS analysis; assay type: ADME, organism-based; parameters: time infinity, dose 10 mg/kg, route intravenous; conditions: plasma
# A2780 [19] = assay: Antiproliferative activity against […] human A2780 cells after 72 hrs by CellTiter-Glo assay; assay type: functional, cell-based; conditions: A2780, 72 h
# [20] = target: Cyclin-dependent kinase 2/cyclin A (Homo sapiens, UniProt P24941); assay: Inhibition of CDK2/Cyclin A; assay type: protein-complex assay
# [21] = target: Serine/threonine-protein kinase PLK3 (Homo sapiens, UniProt Q9H4B4); assay: Inhibition of PLK3
# Serine/threonine-protein kinase PLK3, sequence (Q9H4B4 whole entry): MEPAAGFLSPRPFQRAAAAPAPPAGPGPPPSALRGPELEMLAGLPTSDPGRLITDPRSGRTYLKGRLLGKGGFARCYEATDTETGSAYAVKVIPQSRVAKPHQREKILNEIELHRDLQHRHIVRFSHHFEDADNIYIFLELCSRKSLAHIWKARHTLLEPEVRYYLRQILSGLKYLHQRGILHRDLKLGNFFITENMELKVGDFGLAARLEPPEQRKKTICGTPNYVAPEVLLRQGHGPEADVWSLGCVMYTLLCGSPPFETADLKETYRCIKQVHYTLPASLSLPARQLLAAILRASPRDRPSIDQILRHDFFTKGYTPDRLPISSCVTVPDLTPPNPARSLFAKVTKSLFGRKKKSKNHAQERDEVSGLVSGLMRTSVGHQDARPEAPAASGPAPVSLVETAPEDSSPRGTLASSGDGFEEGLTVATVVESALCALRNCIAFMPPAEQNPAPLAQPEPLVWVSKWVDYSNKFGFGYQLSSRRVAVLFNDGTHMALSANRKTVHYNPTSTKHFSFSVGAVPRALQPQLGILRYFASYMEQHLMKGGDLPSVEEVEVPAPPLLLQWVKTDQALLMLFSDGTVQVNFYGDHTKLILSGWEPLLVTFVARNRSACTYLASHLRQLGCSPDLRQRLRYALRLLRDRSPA
# [22] = Terminal half life in CD1 mouse at 10 mg/kg, iv administered as single dose by LC/MS/MS analysis; assay type: ADME, organism-based; parameters: dose 10 mg/kg, route intravenous; conditions: in vivo, read-out: beta t1/2 (converted)
# [23] = Oral bioavailability in CD1 mouse at 10 mg/kg administered as single dose by LC/MS/MS analysis; assay type: ADME, organism-based; conditions: in vivo
# U2OS [24] = assay: Induction of cell cycle arrest in human U2OS cells assessed as accumulation of cyclin B1-positive cells at 320 nM after 24 hrs by array scan assay
# [25] = target: Serine/threonine-protein kinase PLK2 (Homo sapiens, UniProt Q9NYY3); assay: Inhibition of PLK2
# Serine/threonine-protein kinase PLK2, sequence (Q9NYY3 whole entry): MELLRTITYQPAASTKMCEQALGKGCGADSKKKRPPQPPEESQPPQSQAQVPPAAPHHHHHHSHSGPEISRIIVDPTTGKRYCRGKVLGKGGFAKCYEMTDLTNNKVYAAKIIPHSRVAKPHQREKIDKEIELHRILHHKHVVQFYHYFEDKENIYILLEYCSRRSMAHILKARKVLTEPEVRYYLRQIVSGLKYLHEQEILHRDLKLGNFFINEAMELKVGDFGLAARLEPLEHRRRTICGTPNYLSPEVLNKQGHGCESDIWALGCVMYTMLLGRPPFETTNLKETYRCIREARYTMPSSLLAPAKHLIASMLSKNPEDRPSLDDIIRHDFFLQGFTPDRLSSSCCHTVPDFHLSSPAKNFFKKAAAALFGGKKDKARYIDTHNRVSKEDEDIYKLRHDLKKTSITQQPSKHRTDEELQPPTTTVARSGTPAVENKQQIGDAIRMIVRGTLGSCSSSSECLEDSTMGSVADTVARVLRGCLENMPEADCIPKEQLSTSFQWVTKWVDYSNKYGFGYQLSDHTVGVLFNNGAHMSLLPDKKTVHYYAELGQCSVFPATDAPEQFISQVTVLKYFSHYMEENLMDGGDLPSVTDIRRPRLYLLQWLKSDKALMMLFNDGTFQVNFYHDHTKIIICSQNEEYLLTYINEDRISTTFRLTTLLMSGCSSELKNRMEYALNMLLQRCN
# [26] = Inhibition of casein kinase 2
# Mus musculus [27] = assay: Toxicity in CD1 mouse xenografted with human A2780 cells assessed as reversible body weight loss at 30 mg/kg, iv BID administered on day 1, 2, 3 post-implantation measured on day 12; assay type: organism-based; parameters: dose 30 mg/kg, route intravenous; conditions: in vivo
# HCT-116 [28] = assay: Antiproliferative activity against human HCT116 cells after 72 hrs by CellTiter-Glo assay; assay type: functional, cell-based; conditions: HCT-116, 72 h
# A2780 [29] = assay: Induction of cell cycle arrest in human A2780 cells assessed as accumulation at G2/M phase at 0.005 to 0.5 uM after 24 hrs; assay type: functional, cell-based
# NCI-H1993 = assay: Antiproliferative activity against human NCI-H1993 cells after 72 hrs by CellTiter-Glo assay; assay type: functional, cell-based; conditions: NCI-H1993, 72 h
# [30] = Intrinsic clearance in human liver microsomes; assay type: ADME, Microsome
# HCT-116 [31] = assay: Antitumor against human HCT116 cells xenografted in CD1 mouse assessed as tumor growth inhibition at 30 mg/kg, iv BID administered on day 1, 2 post-implantation in weekly schedule of 3 cycles measured on day 32; assay type: functional; conditions: read-out: TGI
# HL-60 = assay: Antiproliferative activity against human HL60 cells after 72 hrs by CellTiter-Glo assay; assay type: functional, cell-based; conditions: HL-60, 72 h
# LoVo = assay: Antiproliferative activity against human LoVo cells after 72 hrs by CellTiter-Glo assay; assay type: functional, cell-based
# [32] = Antiproliferative activity against human KU812 cells after 72 hrs by CellTiter-Glo assay; assay type: functional, cell-based; conditions: KU812, 72 h
# [33] = target: ALK tyrosine kinase receptor (Homo sapiens, UniProt Q9UM73); assay: Inhibition of ALK
# ALK tyrosine kinase receptor, sequence (Q9UM73 whole entry): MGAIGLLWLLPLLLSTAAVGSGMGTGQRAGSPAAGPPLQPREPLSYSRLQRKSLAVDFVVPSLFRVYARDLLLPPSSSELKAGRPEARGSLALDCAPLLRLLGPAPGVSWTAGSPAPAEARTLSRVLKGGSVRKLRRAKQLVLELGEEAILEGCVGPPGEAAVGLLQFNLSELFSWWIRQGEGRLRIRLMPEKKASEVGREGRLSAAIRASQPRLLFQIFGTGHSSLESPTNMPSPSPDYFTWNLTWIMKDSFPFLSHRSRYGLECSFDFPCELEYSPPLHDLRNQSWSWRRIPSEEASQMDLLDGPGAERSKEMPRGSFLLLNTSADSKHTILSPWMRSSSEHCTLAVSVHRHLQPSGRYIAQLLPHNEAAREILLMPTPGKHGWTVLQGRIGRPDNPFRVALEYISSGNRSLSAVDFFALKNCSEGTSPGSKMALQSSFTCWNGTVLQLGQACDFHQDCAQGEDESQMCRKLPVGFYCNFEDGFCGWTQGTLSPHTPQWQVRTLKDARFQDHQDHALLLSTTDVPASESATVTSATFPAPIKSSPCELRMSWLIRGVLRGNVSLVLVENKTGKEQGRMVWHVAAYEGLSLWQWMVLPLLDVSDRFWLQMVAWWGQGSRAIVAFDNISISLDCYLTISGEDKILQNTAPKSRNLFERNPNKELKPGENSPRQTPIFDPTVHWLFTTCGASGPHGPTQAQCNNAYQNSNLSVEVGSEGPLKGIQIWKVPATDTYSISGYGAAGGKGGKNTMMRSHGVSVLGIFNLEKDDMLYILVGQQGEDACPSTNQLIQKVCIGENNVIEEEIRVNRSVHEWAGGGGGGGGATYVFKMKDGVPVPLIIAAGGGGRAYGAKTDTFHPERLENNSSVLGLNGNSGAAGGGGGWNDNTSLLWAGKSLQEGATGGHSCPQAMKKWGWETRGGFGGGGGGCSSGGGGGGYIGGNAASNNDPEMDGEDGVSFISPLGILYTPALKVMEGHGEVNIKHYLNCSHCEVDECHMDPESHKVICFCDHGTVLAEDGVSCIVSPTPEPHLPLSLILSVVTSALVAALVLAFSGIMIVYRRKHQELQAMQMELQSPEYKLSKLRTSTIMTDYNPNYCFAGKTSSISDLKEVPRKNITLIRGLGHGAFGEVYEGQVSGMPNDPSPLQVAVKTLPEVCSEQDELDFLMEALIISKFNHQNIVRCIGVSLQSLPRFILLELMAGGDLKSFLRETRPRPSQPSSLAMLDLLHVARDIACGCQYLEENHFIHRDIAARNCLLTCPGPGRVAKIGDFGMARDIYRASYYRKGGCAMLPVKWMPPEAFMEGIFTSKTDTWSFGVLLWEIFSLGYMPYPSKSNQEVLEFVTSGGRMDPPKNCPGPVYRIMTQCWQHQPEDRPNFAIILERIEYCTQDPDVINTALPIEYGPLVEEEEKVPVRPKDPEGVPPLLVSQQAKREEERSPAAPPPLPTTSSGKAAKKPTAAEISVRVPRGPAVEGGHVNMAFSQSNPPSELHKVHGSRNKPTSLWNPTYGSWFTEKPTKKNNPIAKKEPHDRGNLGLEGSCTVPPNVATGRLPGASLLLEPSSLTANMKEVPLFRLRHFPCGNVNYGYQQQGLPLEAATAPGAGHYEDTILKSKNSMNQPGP
# [34] = Antiproliferative activity against human 1A9PTX22 cells after 72 hrs by CellTiter-Glo assay; assay type: functional, cell-based; conditions: 1A9/ptx-22, 72 h
compound,measurement,setting,value
CN1CCN(c2ccc(OC(F)(F)F)c(Nc3ncc4c(n3)-c3c(c(C(N)=O)nn3C)CC4)c2)CC1,solubility,[1],72 µM
same,half-life,[2],1.44 h
same,IC50,MIA PaCa-2,52 nM
same,IC50,[3],1660 nM
same,IC50,[4],51 nM
same,IC50,A2780 [5],21 nM
same,IC50,[6],5 nM
same,Cmax,[7],290 nM
same,clearance,[8],70.2 mL/min/kg
same,IC50,HT-29,8 nM
same,AUC(0-inf),[9],1.04 µM·h
same,Activity,HCT-116 [10],Active
same,inhibition in vivo at 60 mg/kg,HCT-116 [11],70%
same,solubility,[12],> 3200 µg/mL
same,Activity,Mus musculus [13],13%
same,Activity,Mus musculus [14],14%
same,Activity,A2780 [15],Active
same,Papp,[16],50 ×10⁻⁶ cm/s
same,IC50,U2OS [17],95 nM
same,AUC(0-inf),[18],4.97 µM·h
same,IC50,A2780 [19],21 nM
same,IC50,[20],> 10000 nM
same,IC50,[21],1440 nM
same,half-life,[22],0.92 h
same,bioavailability,[23],21%
same,Activity,U2OS [24],20%
same,IC50,[25],3520 nM
same,IC50,[26],140 nM
same,Activity,Mus musculus [27],19%
same,IC50,HCT-116 [28],41 nM
same,Activity,A2780 [29],Active
same,IC50,NCI-H1993,195 nM
same,CLint scaled,[30],25.7 mL/min/kg
same,inhibition in vivo at 30 mg/kg,HCT-116 [31],81%
same,IC50,HL-60,16 nM
same,IC50,LoVo,7 nM
same,IC50,[32],2 nM
same,IC50,[33],> 10000 nM
same,IC50,[34],38 nM
